In general, IC50 refers to the midpoint of a concentration-inhibition curve.

One experiment deals with T1, human rec ACSS2 (Homo sapiens, UniProt Q9NR19).
T1 construct: myc (C); purchased Origene
The experiment in a line: Biochemical activity ACSS2 assay (AMP-Glo). The conditions noted are these: human recombinant ACSS2, AMP-Glo, 180 min at 37° C. The gist of the method: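 C-terminal myc-tagged human recombinant ACSS2 (1 nM) reacted with 100 µM ATP, 100 µM CoA and 500 µM acetate (final) in pH 7.5 Hepes buffer for 180 min at 37° C, compound in 10 concentrations from 30 µM. Released AMP detected by AMP-Glo luminescence. IC50 normalised to inhibitor-free reaction and 5 µM reference inhibitor.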

The target of experiment [1] is T2, ACSS2 (Homo sapiens, UniProt Q9NR19).
T2 construct: endogenous fatty acid synthesis activity in the human HCT-15 cancer cell line; endogenous in cells; host or cells: HCT-15
Description: Cellular assay of 14C acetate incorporation into fatty acids (IC50 ACSS2 cellular lipids). It is filed as cell-based. The conditions noted are these: HCT-15 cells. On the procedure: This protocol describes a cellular assay capable to quantify endogenous fatty acid synthesis activity in the human HCT-15 cancer cell line following the incorporation of extracellularly administered radiolabeled ^14C acetate with a scintillation proximity based read out on extracted fatty acids.
HCT-15 cells were grown in RPMI 1640 (Gibco) supplemented with 2 mM glutamine, 1 mM sodium pyruvate 10 mM HEPES and 10 % FCS (heat-inactivated) passaged every 2-3 days to remain a subconfluent, vital culture. A working cell bank was prepared with each aliquot containing 1x10^7 viable cells. After thawing, these cells are dilute immediately 1:20 in pre-warmed (37° C.) culture medium. Cells are collected by centrifugation at 200 x g for 5 min, and the supernatant is replaced by 30 mL of fresh culture medium per aliquot to obtain a cell suspension containing 350000 cells/ml. From this cell suspension 100 µL are dispersed into each well of a collagen coated 96 well plate, (black, clear bottom, PS, F-bottom, Greiner) and culture for 24 h (37° C., 5% CO2). After incubation the culture medium is removed and the wells are washed once with 100 µL PBS++ (supplemented with Mg^2+/ Ca^2+, Gibco) and 50 µL assay medium (RPMI 1640 + 10 mM HEPES) are added to each well. Compounds serial dilutions are prepared from 10 mM stock solutions in DMSO using a fixed dilution factor (usually 1:3). After preparation of the dilution series in DMSO, the individual dilutions are further diluted in the assay medium. This working dilution is prepared such, that the concentration is 7x of the final concentration in the assay. The maximal DMSO concentration in the final assay is 0.1%.
To each well 10 µL compound working dilution or DMSO blank are added and the cells are cultured for 2 h (37° C., 5% CO2). Then 10 µL AlamarBlue reagent (Invitrogen) containing 14 µCi/mL ^14C-acetate (Perkin Elmer) are added to each well (70 µl total volume) and cells are again cultured for 2 h. Cell viability is verified by measuring the AlamarBlue fluorescence (Tecan Safire, ex: 544 nm / em: 590 nm). After incubation the culture medium is removed and the wells are carefully washed once with cold 100 µL PBS++. For cell lysis and fatty acid recovery 50 µl 0.1 M NaOH and 0.1 % Triton-X100 are added per well. The plate is sealed with PlateLoc (clear peelable heat seal, Agilent) and incubate at 70° C. for 16-24 h. After cooling to room temperature, the plates are centrifuged for 1 min at 1000 rpm and the plate seals are removed. For acidification 150 µL 0.1 M HCl are added to each well, mixed and 150 µL of the mixture are transferred into a 96 well FlashPlate (Perkin Elmer). The plates are sealed with TopSeaI-a (Perkin Elmer). To allow for the fatty acid binding to the well surfaces the plates are incubate for 4 h at 70° C. After cooling to room temperature, the plates are centrifuged for 1 min at 1000 rpm and stored for 0.5-2 h at room temperature in the dark. Radioactivity from ^14C incorporation into fatty acids in the wells is measured as CPM count in a MicroBeta scintillation counter (Perkin Elmer).

In experiment [2] the target is T2, ACSS2. The experiment in a line: Cellular assay of 14C acetate incorporation into histones (IC50 ACSS2 cellular histone). In kind it is cell-based. Particulars: HCT-15 cells. The gist of the method: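 Human HCT-15 cells preincubated 1 h with compound (0.25% DMSO final), then pulsed 3 h with 14C-acetate. Histones were acid-extracted (0.2 M HCl, overnight, 4° C) after Triton lysis in sodium-butyrate buffer; incorporated 14C counted by liquid scintillation (CPM) to give IC50.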

T2 sequence (Q9NR19 whole entry): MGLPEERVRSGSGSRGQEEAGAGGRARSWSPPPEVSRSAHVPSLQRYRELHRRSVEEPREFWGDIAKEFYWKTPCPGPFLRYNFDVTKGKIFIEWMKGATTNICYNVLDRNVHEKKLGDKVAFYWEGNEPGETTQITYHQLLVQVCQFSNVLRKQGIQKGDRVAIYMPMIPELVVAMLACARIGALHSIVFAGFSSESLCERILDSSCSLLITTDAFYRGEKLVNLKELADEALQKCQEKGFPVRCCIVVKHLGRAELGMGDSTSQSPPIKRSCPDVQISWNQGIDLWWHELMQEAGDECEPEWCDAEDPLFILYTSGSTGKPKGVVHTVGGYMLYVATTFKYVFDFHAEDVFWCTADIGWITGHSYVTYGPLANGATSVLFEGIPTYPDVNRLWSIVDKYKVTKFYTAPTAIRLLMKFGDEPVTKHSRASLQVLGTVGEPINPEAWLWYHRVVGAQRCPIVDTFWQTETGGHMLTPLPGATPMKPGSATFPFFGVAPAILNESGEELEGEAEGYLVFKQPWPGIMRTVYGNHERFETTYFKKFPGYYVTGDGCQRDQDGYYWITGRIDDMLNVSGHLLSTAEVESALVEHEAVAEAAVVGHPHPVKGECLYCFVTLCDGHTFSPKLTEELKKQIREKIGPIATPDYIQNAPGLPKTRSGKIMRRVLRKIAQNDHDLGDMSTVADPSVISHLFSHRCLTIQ
T1 sequence (Q9NR19 whole entry): as above

In the case of `CCn1cnc(NC(=O)c2cc3c(nc2OC)nc(C(O)(c2ccccc2)c2ccccc2)n3CC)c1` [Compound 76, 1-ethyl-N-(1-ethyl-1H-imidazol-4-yl)-2-(hydroxydiphenylmethyl)-5-methoxy-1H-imidazo[4,5-b]pyridine-6-carboxamide], the IC50 on human rec ACSS2, at ACSS2 [1] and against ACSS2 [2] was 1 to 10 nM each time.

As for `CCn1c(C(O)(c2ccccc2)c2ccccc2)nc2nc(Cl)c(C(=O)Nc3cnn(CCO)c3)cc21` [Compound 66, 5-chloro-1-ethyl-2-(hydroxydiphenylmethyl)-N-[1-(2-hydroxyethyl)-1H-pyrazol-4-yl]-1H-imidazo[4,5-b]pyridine-6-carboxamide], the 50% inhibitory concentration (IC50) on human rec ACSS2 lay in the range of 100 to 10000 nM; against ACSS2 [1], 1 to 10 nM; against ACSS2 [2], 10 to 100 nM.

`CCn1cnc(NC(=O)c2cc3c(nc2OC)nc(C(O)(c2ccccc2)c2ccccn2)n3CC)n1` (racemic) [Compound 69, 1-ethyl-N-(1-ethyl-1H-1,2,4-triazol-3-yl)-2-[hydroxy(phenyl)(pyridin-2-yl)methyl]-5-methoxy-1H-imidazo[4,5-b]pyridine-6-carboxamide]: the figures for the IC50 at human rec ACSS2, on ACSS2 [1] and against ACSS2 [2] were 1 to 10 nM, 1 to 10 nM and 0.01 to 1 nM, respectively.

Regarding `CCc1cnc(NC(=O)c2cc3c(nc2OC)nc(C(O)(c2ccccc2)c2ccccc2)n3CC)o1` [Compound 60, 1-ethyl-N-(5-ethyl-1,3-oxazol-2-yl)-2-(hydroxydiphenylmethyl)-5-methoxy-1H-imidazo[4,5-b]pyridine-6-carboxamide], the IC50 was in the range of 0.01 to 1 nM on human rec ACSS2, 1 to 10 nM on ACSS2 [1] and 0.01 to 1 nM against ACSS2 [2].

As to `CCn1cnc(NC(=O)c2cc3c(nc2OC)nc(C(O)(c2ccccc2)c2cccs2)n3CC)n1` (racemic) [Compound 47, 1-ethyl-N-(1-ethyl-1H-1,2,4-triazol-3-yl)-2-[hydroxy(phenyl)(thiophen-2-yl)methyl]-5-methoxy-1H-imidazo[4,5-b]pyridine-6-carboxamide], the half-maximal inhibitory concentration (IC50) on human rec ACSS2 lay in the range of 1 to 10 nM; on ACSS2 [1] it was 10 to 100 nM; at ACSS2 [2], 0.01 to 1 nM.

For `CCn1c(C(O)(c2ccccc2)c2ccccc2)nc2nc(OC)c(C(=O)Nc3ncn(CCOC)n3)cc21` [Compound 68, 1-ethyl-2-(hydroxydiphenylmethyl)-5-methoxy-N-[1-(2-methoxyethyl)-1H-1,2,4-triazol-3-yl]-1H-imidazo[4,5-b]pyridine-6-carboxamide], the IC50 at human rec ACSS2 fell in the range of 10 to 100 nM; at ACSS2 [1], 100 to 10000 nM; against ACSS2 [2] it was 10 to 100 nM.

As for `CCn1c(C(O)(c2ccccc2)c2ccccn2)nc2nc(OC)c(C(=O)Nc3ncn(CCOC)n3)cc21` (racemic) [Compound 65, 1-ethyl-2-[hydroxy(phenyl)(pyridin-2-yl)methyl]-5-methoxy-N-[1-(2-methoxyethyl)-1H-1,2,4-triazol-3-yl]-1H-imidazo[4,5-b]pyridine-6-carboxamide], the IC50 on human rec ACSS2 is 100 to 10000 nM; at ACSS2 [1], 10 to 100 nM; against ACSS2 [2], 1 to 10 nM.

For the molecule `CCn1c(C(O)(c2ccccc2)c2ccccc2)nc2nc(OC)c(C(=O)Nc3ncn(CCN)n3)cc21` [Compound 46, N-[1-(2-aminoethyl)-1H-1,2,4-triazol-3-yl]-1-ethyl-2-(hydroxydiphenylmethyl)-5-methoxy-1H-imidazo[4,5-b]pyridine-6-carboxamide], the IC50 on human rec ACSS2 was 10 to 100 nM; at ACSS2 [1] it was 100 to 10000 nM; against ACSS2 [2], 100 to 10000 nM.

On to `CCn1cnc(NC(=O)c2cc3c(nc2OC)nc(C(O)(c2ccccc2)c2ccccc2)n3CCO)n1` [Compound 50, N-(1-ethyl-1H-1,2,4-triazol-3-yl)-2-(hydroxydiphenylmethyl)-1-(2-hydroxyethyl)-5-methoxy-1H-imidazo[4,5-b]pyridine-6-carboxamide], for which the results for the IC50 at human rec ACSS2, at ACSS2 [1] and at ACSS2 [2] were 1 to 10 nM, 100 to 10000 nM and 1 to 10 nM, respectively.

With `CCn1c(C(O)(c2ccccc2)c2ccccc2)nc2nc(OC)c(C(=O)Nc3ncn(CCO)n3)cc21` [Compound 73, 1-ethyl-2-(hydroxydiphenylmethyl)-N-[1-(2-hydroxyethyl)-1H-1,2,4-triazol-3-yl]-5-methoxy-1H-imidazo[4,5-b]pyridine-6-carboxamide], the IC50 at human rec ACSS2 lay in the range of 1 to 10 nM; against ACSS2 [1] it was 10 to 100 nM; against ACSS2 [2], 10 to 100 nM.

For `CCn1cc(NC(=O)c2cc3c(nc2F)nc(C(O)(c2ccccc2)c2ccccc2)n3CC)cn1` [Compound 92, 1-ethyl-N-(1-ethyl-1H-pyrazol-4-yl)-5-fluoro-2-(hydroxydiphenylmethyl)-1H-imidazo[4,5-b]pyridine-6-carboxamide], the IC50 was 10 to 100 nM at human rec ACSS2, 1 to 10 nM on ACSS2 [1] and 1 to 10 nM against ACSS2 [2].

`CCn1cc(NC(=O)c2cc3c(nc2OC)nc(C(O)(c2ccccc2F)c2ccccc2F)n3CC)cn1` [Compound 104, 2-[bis(2-fluorophenyl)(hydroxy)methyl]-1-ethyl-N-(1-ethyl-1H-pyrazol-4-yl)-5-methoxy-1H-imidazo[4,5-b]pyridine-6-carboxamide]: the IC50 at human rec ACSS2, against ACSS2 [1] and on ACSS2 [2] was 1 to 10 nM throughout.

For `CCn1cnc(NC(=O)c2cc3c(nc2OC)nc(C(O)(c2ccccc2)c2ncccn2)n3CC)n1` (racemic) [Compound 49, 1-ethyl-N-(1-ethyl-1H-1,2,4-triazol-3-yl)-2-[hydroxy(phenyl)(pyrimidin-2-yl)methyl]-5-methoxy-1H-imidazo[4,5-b]pyridine-6-carboxamide], the figures for the IC50 at human rec ACSS2 and at ACSS2 [2] were 10 to 100 nM and 1 to 10 nM, respectively.

For the molecule `CCc1nc(CNC(=O)c2cc3c(nc2OC)nc(C(O)(c2ccccc2)c2ccccc2)n3CC)no1` [Compound 63, 1-ethyl-N-[(5-ethyl-1,2,4-oxadiazol-3-yl)methyl]-2-(hydroxydiphenylmethyl)-5-methoxy-1H-imidazo[4,5-b]pyridine-6-carboxamide], the values for the IC50 on human rec ACSS2 and at ACSS2 [2] were 100 to 10000 nM and 10 to 100 nM, respectively.

With `CCn1c(C(O)(c2ccccc2)c2ccccc2)nc2nc(Cl)c(C(=O)Nc3cnn(CCOC)c3)cc21` [Compound 67, 5-chloro-1-ethyl-2-(hydroxydiphenylmethyl)-N-[1-(2-methoxyethyl)-1H-pyrazol-4-yl]-1H-imidazo[4,5-b]pyridine-6-carboxamide], the IC50 at human rec ACSS2 and on ACSS2 [2] was 10 to 100 nM throughout.

On to `CCn1cnc(NC(=O)c2cc3c(nc2OC)nc(C(O)(c2ccccc2)c2ccccn2)n3CC)n1` (single isomer, unassigned) [Compound 54, 1-ethyl-N-(1-ethyl-1H-1,2,4-triazol-3-yl)-2-[hydroxy(phenyl)(pyridin-2-yl)methyl]-5-methoxy-1H-imidazo[4,5-b]pyridine-6-carboxamide], for which the IC50 on human rec ACSS2 and against ACSS2 [2] was 10 to 100 nM each time.

Take `CCn1cc(NC(=O)c2cnc3nc(C(O)(c4ccccc4)c4ccccc4)n(C)c3c2)cn1` [Compound 114, N-(1-ethyl-1H-pyrazol-4-yl)-2-(hydroxydiphenylmethyl)-1-methyl-1H-imidazo[4,5-b]pyridine-6-carboxamide]: the IC50 at human rec ACSS2 and at ACSS2 [2] was 10 to 100 nM in each case.

In the case of `CCn1cnc(NC(=O)c2cc3c(nc2Cl)nc(C(O)(c2ccccc2)c2ccccc2)n3CC)c1` [Compound 82, 5-chloro-1-ethyl-N-(1-ethyl-1H-imidazol-4-yl)-2-(hydroxydiphenylmethyl)-1H-imidazo[4,5-b]pyridine-6-carboxamide], the IC50 at human rec ACSS2 lay within 1 to 10 nM; against ACSS2 [2], 0.01 to 1 nM.
